# System: not listed separately
# Assay: Sedative effect noted in CFA arthritis model protocol
# Assay type: in vivo, rats
# Settings: oral dose of 5mg/kg
# Method: Male SD rats are injected with […] of CFA (0.1 mg heat killed and dried M. tuberculosis/ml) in the hind paw ([…] on the plantar surface of the paw) essentially as described by Bertorelli R, Corradini L, Rafiq K, Tupper J, Calo G, Ongini E., Br J Pharmacol. 1999 128(6):1252-8 and by Stein C, Millan M J, Herz A. Pharmacol Biochem Behav. 1988 31(2):455-51.
# On day 7, animals are treated orally with a compound of the invention, morphine or vehicle (2% vitamin E-TPGS) 1 hour prior to testing.
row,Compound,sedative effects
1,CN1CC[C@]23c4c5ccc(O)c4O[C@H]2[C@@H](O)C=C[C@H]3[C@H]1C5 [morphine],has sedative effects

# Biological target: T1, human capsaicin receptor (Homo sapiens, UniProt Q8NER1)
# T1 construct: expression consrtuct encoding the full length human capsaicin receptor; expressed in transfected cells
# Assay: Capsaicin receptor binding assay ([3H]RTX competition)
# Settings: Table II; read-out: Activity
# Source text: Capsaicin Receptor Binding Assay
# The following assay is a standard assay of capsaicin receptor binding that may be used to determine the binding affinity of compounds for the capsaicin (VR1) receptor.
# Materials. [^3H]Resiniferatoxin (RTX; 37 Ci/mmol) was synthesized by and obtained from the Chemical Synthesis and Analysis Laboratory, National Cancer Institute-Frederick Cancer Research and Development Center, Frederick, MD. [^3H] […] Nonradioactive RTX may be purchased from Alexis Corp. (San Diego, Calif.) and capsazepine from RBI (Natick, Mass).
# Cell Culture. […] These transfected cells are selected for two weeks in media containing G418 (400 ug/ml) and then maintained as a pool of stably transfected cells.
# pUHG102 VR1 expression plasmids are transfected into Chinese Hamster Ovary (CHO) cells containing the pTet Off Regulator plasmid (Clontech). In these cells, expression of the pUHG plasmid is repressed in the presence of tetracycline but is induced upon removal of the antibiotic. Stable clones are isolated in culture medium containing puromycin (10 ug/ml) and maintained in medium supplemented with tetracycline (1 ug/ml) Cells utilized for assays are grown in culture medium without antibiotic for 48-72 hours prior to use. For radioligand binding experiments, cells are seeded in T175 cell culture flasks in media without antibiotics and grown to approximately 90% confluency. The flasks are then washed with PBS and harvested in PBS containing 5 mM EDTA. The cells are pelleted by gentle centrifugation and stored at −80° C. until assayed.
# Previously frozen cells are disrupted with the aid of a tissue homogenizer in ice-cold HEPES homogenization buffer (5mM KCl 5, 5.8mM NaCl, 0.75mM CaCl2, 2mM MgCl2, 320 mM sucrose, and 10 mM HEPES pH 7.4). Tissue homogenates are first centrifuged for 10 min at 1000×g (4° C.) to remove the nuclear fraction and debris and then the supernatant from the first centrifugation is further centrifuged for 30 min at 35,000×g (4° C.) to obtain a partially purified membrane fraction. Membranes are resuspended in the HEPES homogenization buffer prior to being assayed. An aliquot of this membrane homogenate is used to determine protein concentration via the Bradford method (BIO-RAD Protein Assay Ki t, #500-0001, BIO-RAD, Hercules, Calif.).
# Binding assay mixtures were set up on ice and contained [^3H]RTX (specific activity 2200 mCi/ml), 2 ul non-radioactive ligands test compound, 0.25 mg/ml bovine serum albumin (Cohn fraction V), and 5×10^4−1×10^5 VR1-transfected cells. The final volume was adjusted to 500 ul (competition binding assays) or 1,000 ul (saturation binding assays) with the ice-cold HEPES homogenization buffer solution (pH 7.4) described above. Non-specific binding was defined as that occurring in the presence of 1 uM non-radioactive RTX. For saturation binding, [^3H]RTX was added in the concentration range of 7 - 1,000 pM, using 1 to 2 dilutions. Typically 11 concentration points are collected per saturation binding curve.
# Competition binding assays were performed in the presence of 60 pM [^3H]RTX and various concentrations of competing ligands. The binding reactions are initiated by transferring the assay mixtures into a 37° C. water bath and are terminated following a 60 min incubation period by cooling the tubes on ice. Membrane-bound RTX is separated from free, as well as any alpha1-acid glycoprotein-bound RTX, by filtration onto WALLAC glass fiber filters (PERKIN-ELMER, Gaithersburg, Md.) which are pre-soaked with 1.0% PEI (polyethyleneimine) for 2 hours prior to use.
# T1 sequence (Q8NER1 whole entry): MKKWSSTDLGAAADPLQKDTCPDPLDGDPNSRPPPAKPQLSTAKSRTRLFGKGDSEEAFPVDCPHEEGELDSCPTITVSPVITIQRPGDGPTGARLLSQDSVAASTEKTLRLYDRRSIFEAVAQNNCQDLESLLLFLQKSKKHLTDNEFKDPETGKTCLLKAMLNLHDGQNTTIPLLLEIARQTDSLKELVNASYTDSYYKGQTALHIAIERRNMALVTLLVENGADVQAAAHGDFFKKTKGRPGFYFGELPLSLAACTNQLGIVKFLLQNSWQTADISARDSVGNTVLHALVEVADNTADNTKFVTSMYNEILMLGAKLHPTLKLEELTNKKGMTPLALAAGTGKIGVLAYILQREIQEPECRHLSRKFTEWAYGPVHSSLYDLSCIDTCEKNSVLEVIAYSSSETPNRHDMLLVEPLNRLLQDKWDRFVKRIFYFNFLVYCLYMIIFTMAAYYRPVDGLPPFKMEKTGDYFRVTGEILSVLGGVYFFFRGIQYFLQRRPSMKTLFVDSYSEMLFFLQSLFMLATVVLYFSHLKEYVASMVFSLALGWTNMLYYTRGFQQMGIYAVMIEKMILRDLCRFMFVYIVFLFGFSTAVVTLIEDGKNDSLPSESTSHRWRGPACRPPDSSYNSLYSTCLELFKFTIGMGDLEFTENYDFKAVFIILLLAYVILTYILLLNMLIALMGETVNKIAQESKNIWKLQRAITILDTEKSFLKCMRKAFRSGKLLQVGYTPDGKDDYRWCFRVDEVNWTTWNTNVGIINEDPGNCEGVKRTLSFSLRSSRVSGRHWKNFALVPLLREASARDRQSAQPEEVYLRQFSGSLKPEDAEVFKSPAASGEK
row,Compound,Ki [µM]
1,"Cc1cccnc1C(=O)C=Cc1ccc(C(F)(F)F)cc1 [Compound 10, 1-(3-Methyl-2-pyridinyl)-3-(4-trifluoromethylphenyl)-prop-2-en-1-one]",< 4
2,"CCCCc1ccc(NC(=O)N2CCN(c3ncccc3[N+](=O)[O-])CC2)cc1 [Compound 2, 4-(3-Nitro-2-pyridinyl)-N-[4-(n-butyl)phenyl]-1-piperazinecarboxamide]",< 4
3,"Cc1cccnc1N1CCN(C(=O)Nc2ccc(C(C)C)cc2)CC1 [Compound 4, 4-(3-Methyl-2-pyridinyl)-N-[4-(isopropyl)phenyl]-1-Piperazinecarboxamide]",< 4
4,"CC(C)c1ccc(NC(=O)N2CCN(c3ncc(C(F)(F)F)cc3Cl)CC2)cc1 [Compound 7, 4-(3-Chloro-5-trifluoromethyl-2-pyridinyl)-N-[4-(isopropyl)phenyl]-1-piperazinecarboxamide]",< 4
5,"CC(C)c1ccc(NC(=O)N2CCN(c3ncc(Cl)cc3Cl)CC2)cc1 [Compound 9, 4-(3,5-Dichloro-2-pyridinyl)-N-[4-(isopropyl)phenyl]-1-piperazinecarboxamide]",< 4
6,"CC(C)c1ccc(NC(=O)N2CCN(c3ncccc3Cl)CC2)cc1 [Compound 8, 4-(3-Chloro-2-pyridinyl)-N-[4-(isopropyl)phenyl]-1-piperazinecarboxamide]",< 4
7,4-(3-Chloro-2-pyridinyl)-N-[4-(isopropyl)phenyl]-1-piperazinecarboxamide [Compound 14],< 4
8,"CC(C)c1ccc(C=CC(=O)c2ncccc2C(F)(F)F)cc1 [Compound 11, 1-(3-Trifluoromethyl-2-pyridinyl)-3-(4-isopropylphenyl)-prop-2-en-1-one]",< 4
9,"CCCCc1ccc(NC(=O)N2CCN(c3ncccc3C(F)(F)F)CC2)cc1 [Compound 3, 4-(3-Trifluoromethyl-2-pyridinyl)-N-[4-(n-butyl)phenyl]-1-piperazinecarboxamide]",< 4

# Same assay, conditions: read-out: Capsaicin rececptor Ki
row,Compound,Ki [µM]
1,"COc1cc(CNC(=O)N2CCN(c3ncccc3C(F)(F)F)CC2)ccc1O [Compound 1, 4-(3-Trifluoromethyl-2-pyridinyl)-N-(3-methoxy-4-hydroxyphenylmethyl)-1-piperazinecarboxamide]",0.366

# System: not given
# Assay: not given
# Settings: not given
row,Compound,melting point [°C]
1,"CC(C)c1ccc(NC(=S)N2CCN(c3ncccc3Cl)C[C@H]2C)cc1 (stereo in doubt) [Example 7, 4-(3-Chloro-pyridin-2-yl)-2-methyl-piperazine-1-carbothioic acid (4-isopropyl-phenyl)-amide]",49 to 51

# From patent US20020132853A1, “Capsaicin receptor ligands” (priority 2000, published 2002)
